Data taken from patent US20100267561A1, “HERBICIDAL PYRIDAZINONE DERIVATIVES” (priority 2007, published 2010).

Key:
Test in all cases: Test E pre-/postemergence plant response
Format in all cases: in vivo
Conditions in all cases: scale 0 to 100
[1] = system: common purslane (Portulaca oleracea)
How it was run: (§1)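 Pre/post herbicide screen; formulation: non-phytotoxic solvent mix + surfactant. Post timing 1–4 leaves (2–18 cm ht). Greenhouse 14–21 d; visual 0 (none) to 100 (complete control) vs controls.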

[2] = system: broadleaf signalgrass (Brachiaria platyphylla)
How it was run: as §1

[3] = system: dallisgrass (Paspalum dilatatum)
How it was run: as §1

[4] = system: common mallow (Malva sylvestris)
How it was run: as §1

[5] = system: quackgrass (Elytrigia repens)
How it was run: as §1

[6] = system: large crabgrass (Digitaria sanguinalis)
How it was run: as §1

[7] = system: green foxtail (Setaria viridis)
How it was run: as §1

[8] = system: common groundsel (Senecio vulgaris)
How it was run: as §1

[9] = system: southern (S.) sandbur (Cenchrus echinatus)
How it was run: as §1

[10] = system: purple nutsedge (Cyperus rotundus)
How it was run: as §1

[11] = system: johnsongrass (Sorghum halepense)
How it was run: as §1

[12] = system: surinam grass (Brachiaria decumbens)
How it was run: as §1

CCc1cc(-c2ccc(C(F)(F)F)cc2)nn1-c1c(O)cnn(C)c1=O [Compound 11, 4-[5-ethyl-3-[4-(trifluoromethyl)phenyl]-1H-pyrazol-1-yl]-5-hydroxy-2-methyl-3(2H)-pyridazinone]
20: Plant response rating, Dallisgrass ([3]; 8 g ai/ha, Preemergence)
40: Plant response rating, Quackgrass ([5]; 4 g ai/ha, Postemergence)
80: Plant response rating, Surinam Grass ([12]; Postemergence, 8 g ai/ha)
10: Plant response rating, Dallisgrass ([3]; Preemergence, 4 g ai/ha)
70: Plant response rating, Crabgrass, Large ([6]; Postemergence, 8 g ai/ha)
90: Plant response rating, Signalgrass ([2]; 4 g ai/ha, Postemergence) | Plant response rating, Signalgrass ([2]; 16 g ai/ha, Preemergence) | Plant response rating, Signalgrass ([2]; Postemergence, 8 g ai/ha) | Plant response rating, Signalgrass ([2]; Postemergence, 16 g ai/ha) | Plant response rating, Dallisgrass ([3]; Postemergence, 16 g ai/ha) | Plant response rating, Dallisgrass ([3]; Postemergence, 31 g ai/ha) | Plant response rating, Quackgrass ([5]; Postemergence, 16 g ai/ha) | Plant response rating, Foxtail, Green ([7]; Postemergence, 8 g ai/ha) | Plant response rating, Sandbur, S. ([9]; 4 g ai/ha, Postemergence) | Plant response rating, Sandbur, S. ([9]; 16 g ai/ha, Preemergence) | Plant response rating, Johnsongrass ([11]; 16 g ai/ha, Preemergence)
25: Plant response rating, Surinam Grass ([12]; 4 g ai/ha, Postemergence)
98: Plant response rating, Foxtail, Green ([7]; 16 g ai/ha, Preemergence) | Plant response rating, Foxtail, Green ([7]; 31 g ai/ha, Preemergence) | Plant response rating, Foxtail, Green ([7]; Postemergence, 16 g ai/ha)
50: Plant response rating, Foxtail, Green ([7]; 8 g ai/ha, Preemergence)
85: Plant response rating, Dallisgrass ([3]; 31 g ai/ha, Preemergence)
30: Plant response rating, Crabgrass, Large ([6]; 16 g ai/ha, Preemergence)
65: Plant response rating, Quackgrass ([5]; Postemergence, 8 g ai/ha)
95: Plant response rating, Quackgrass ([5]; Postemergence, 31 g ai/ha) | Plant response rating, Crabgrass, Large ([6]; Postemergence, 16 g ai/ha) | Plant response rating, Sandbur, S. ([9]; 31 g ai/ha, Preemergence) | Plant response rating, Sandbur, S. ([9]; Postemergence, 8 g ai/ha) | Plant response rating, Johnsongrass ([11]; 4 g ai/ha, Postemergence) | Plant response rating, Johnsongrass ([11]; 31 g ai/ha, Preemergence) | Plant response rating, Surinam Grass ([12]; 16 g ai/ha, Preemergence) | Plant response rating, Surinam Grass ([12]; 31 g ai/ha, Preemergence)
0: Plant response rating, Purslane ([1]; 4 g ai/ha, Postemergence) | Plant response rating, Purslane ([1]; 16 g ai/ha, Preemergence) | Plant response rating, Purslane ([1]; 31 g ai/ha, Preemergence) | Plant response rating, Purslane ([1]; Postemergence, 8 g ai/ha) | Plant response rating, Purslane ([1]; Postemergence, 16 g ai/ha) | Plant response rating, Purslane ([1]; Postemergence, 31 g ai/ha) | Plant response rating, Purslane ([1]; Preemergence, 4 g ai/ha) | Plant response rating, Signalgrass ([2]; Preemergence, 4 g ai/ha) | Plant response rating, Mallow ([4]; 4 g ai/ha, Postemergence) | Plant response rating, Mallow ([4]; Postemergence, 8 g ai/ha) | Plant response rating, Mallow ([4]; Postemergence, 16 g ai/ha) | Plant response rating, Mallow ([4]; Postemergence, 31 g ai/ha) | Plant response rating, Quackgrass ([5]; Preemergence, 4 g ai/ha) | Plant response rating, Crabgrass, Large ([6]; 8 g ai/ha, Preemergence) | Plant response rating, Crabgrass, Large ([6]; Preemergence, 4 g ai/ha) | Plant response rating, Foxtail, Green ([7]; Preemergence, 4 g ai/ha) | Plant response rating, Groundsel ([8]; 4 g ai/ha, Postemergence) | Plant response rating, Groundsel ([8]; 16 g ai/ha, Preemergence) | Plant response rating, Groundsel ([8]; 31 g ai/ha, Preemergence) | Plant response rating, Groundsel ([8]; Postemergence, 8 g ai/ha) | Plant response rating, Groundsel ([8]; Postemergence, 16 g ai/ha) | Plant response rating, Groundsel ([8]; Postemergence, 31 g ai/ha) | Plant response rating, Groundsel ([8]; Preemergence, 4 g ai/ha) | Plant response rating, Sandbur, S. ([9]; Preemergence, 4 g ai/ha) | Plant response rating, Nutsedge, Purple ([10]; 4 g ai/ha, Postemergence) | Plant response rating, Nutsedge, Purple ([10]; 16 g ai/ha, Preemergence) | Plant response rating, Nutsedge, Purple ([10]; 31 g ai/ha, Preemergence) | Plant response rating, Nutsedge, Purple ([10]; Postemergence, 8 g ai/ha) | Plant response rating, Surinam Grass ([12]; Preemergence, 4 g ai/ha)
100: Plant response rating, Signalgrass ([2]; 31 g ai/ha, Preemergence) | Plant response rating, Signalgrass ([2]; Postemergence, 31 g ai/ha) | Plant response rating, Crabgrass, Large ([6]; 31 g ai/ha, Preemergence) | Plant response rating, Crabgrass, Large ([6]; Postemergence, 31 g ai/ha) | Plant response rating, Foxtail, Green ([7]; Postemergence, 31 g ai/ha) | Plant response rating, Sandbur, S. ([9]; Postemergence, 16 g ai/ha) | Plant response rating, Sandbur, S. ([9]; Postemergence, 31 g ai/ha) | Plant response rating, Johnsongrass ([11]; Postemergence, 8 g ai/ha) | Plant response rating, Johnsongrass ([11]; Postemergence, 16 g ai/ha) | Plant response rating, Johnsongrass ([11]; Postemergence, 31 g ai/ha) | Plant response rating, Surinam Grass ([12]; Postemergence, 16 g ai/ha) | Plant response rating, Surinam Grass ([12]; Postemergence, 31 g ai/ha)
35: Plant response rating, Dallisgrass ([3]; 16 g ai/ha, Preemergence)
75: Plant response rating, Dallisgrass ([3]; Postemergence, 8 g ai/ha) | Plant response rating, Quackgrass ([5]; 31 g ai/ha, Preemergence) | Plant response rating, Johnsongrass ([11]; Preemergence, 4 g ai/ha)
60: Plant response rating, Dallisgrass ([3]; 4 g ai/ha, Postemergence) | Plant response rating, Quackgrass ([5]; 16 g ai/ha, Preemergence) | Plant response rating, Crabgrass, Large ([6]; 4 g ai/ha, Postemergence) | Plant response rating, Foxtail, Green ([7]; 4 g ai/ha, Postemergence)

CCc1cc(-c2ccc(C(F)(F)F)cc2)nn1-c1c(OS(C)(=O)=O)cnn(C)c1=O [Compound 19]
0: Plant response rating, Purslane ([1]; 4 g ai/ha, Postemergence) | Plant response rating, Purslane ([1]; 16 g ai/ha, Preemergence) | Plant response rating, Purslane ([1]; 31 g ai/ha, Preemergence) | Plant response rating, Purslane ([1]; Postemergence, 8 g ai/ha) | Plant response rating, Purslane ([1]; Postemergence, 16 g ai/ha) | Plant response rating, Purslane ([1]; Postemergence, 31 g ai/ha) | Plant response rating, Purslane ([1]; Preemergence, 4 g ai/ha) | Plant response rating, Dallisgrass ([3]; 4 g ai/ha, Postemergence) | Plant response rating, Mallow ([4]; 4 g ai/ha, Postemergence) | Plant response rating, Mallow ([4]; 16 g ai/ha, Preemergence) | Plant response rating, Mallow ([4]; 31 g ai/ha, Preemergence) | Plant response rating, Mallow ([4]; Postemergence, 8 g ai/ha) | Plant response rating, Mallow ([4]; Postemergence, 16 g ai/ha) | Plant response rating, Mallow ([4]; Postemergence, 31 g ai/ha) | Plant response rating, Quackgrass ([5]; 4 g ai/ha, Postemergence) | Plant response rating, Quackgrass ([5]; Preemergence, 4 g ai/ha) | Plant response rating, Crabgrass, Large ([6]; Preemergence, 4 g ai/ha) | Plant response rating, Foxtail, Green ([7]; Preemergence, 4 g ai/ha) | Plant response rating, Groundsel ([8]; 4 g ai/ha, Postemergence) | Plant response rating, Groundsel ([8]; 16 g ai/ha, Preemergence) | Plant response rating, Groundsel ([8]; 31 g ai/ha, Preemergence) | Plant response rating, Groundsel ([8]; Postemergence, 8 g ai/ha) | Plant response rating, Groundsel ([8]; Postemergence, 16 g ai/ha) | Plant response rating, Groundsel ([8]; Postemergence, 31 g ai/ha) | Plant response rating, Groundsel ([8]; Preemergence, 4 g ai/ha) | Plant response rating, Sandbur, S. ([9]; Preemergence, 4 g ai/ha) | Plant response rating, Nutsedge, Purple ([10]; 4 g ai/ha, Postemergence) | Plant response rating, Nutsedge, Purple ([10]; Postemergence, 16 g ai/ha) | Plant response rating, Nutsedge, Purple ([10]; Preemergence, 4 g ai/ha)
98: Plant response rating, Signalgrass ([2]; Postemergence, 16 g ai/ha) | Plant response rating, Signalgrass ([2]; Postemergence, 31 g ai/ha) | Plant response rating, Sandbur, S. ([9]; Postemergence, 8 g ai/ha) | Plant response rating, Sandbur, S. ([9]; Postemergence, 16 g ai/ha) | Plant response rating, Johnsongrass ([11]; 31 g ai/ha, Preemergence)
50: Plant response rating, Surinam Grass ([12]; Preemergence, 4 g ai/ha)
100: Plant response rating, Crabgrass, Large ([6]; 31 g ai/ha, Preemergence) | Plant response rating, Foxtail, Green ([7]; 31 g ai/ha, Preemergence) | Plant response rating, Foxtail, Green ([7]; Postemergence, 31 g ai/ha) | Plant response rating, Sandbur, S. ([9]; Postemergence, 31 g ai/ha) | Plant response rating, Johnsongrass ([11]; Postemergence, 16 g ai/ha) | Plant response rating, Johnsongrass ([11]; Postemergence, 31 g ai/ha) | Plant response rating, Surinam Grass ([12]; 16 g ai/ha, Preemergence) | Plant response rating, Surinam Grass ([12]; 31 g ai/ha, Preemergence) | Plant response rating, Surinam Grass ([12]; Postemergence, 31 g ai/ha)
70: Plant response rating, Surinam Grass ([12]; Postemergence, 8 g ai/ha)
75: Plant response rating, Dallisgrass ([3]; Postemergence, 31 g ai/ha) | Plant response rating, Quackgrass ([5]; Postemergence, 16 g ai/ha) | Plant response rating, Johnsongrass ([11]; Preemergence, 4 g ai/ha)
15: Plant response rating, Quackgrass ([5]; Postemergence, 8 g ai/ha) | Plant response rating, Crabgrass, Large ([6]; 8 g ai/ha, Preemergence)
80: Plant response rating, Signalgrass ([2]; 16 g ai/ha, Preemergence) | Plant response rating, Signalgrass ([2]; 31 g ai/ha, Preemergence) | Plant response rating, Signalgrass ([2]; Postemergence, 8 g ai/ha) | Plant response rating, Quackgrass ([5]; 31 g ai/ha, Preemergence) | Plant response rating, Quackgrass ([5]; Postemergence, 31 g ai/ha) | Plant response rating, Crabgrass, Large ([6]; Postemergence, 31 g ai/ha) | Plant response rating, Sandbur, S. ([9]; 16 g ai/ha, Preemergence)
30: Plant response rating, Dallisgrass ([3]; Postemergence, 8 g ai/ha) | Plant response rating, Crabgrass, Large ([6]; 4 g ai/ha, Postemergence)
60: Plant response rating, Dallisgrass ([3]; Postemergence, 16 g ai/ha) | Plant response rating, Crabgrass, Large ([6]; Postemergence, 16 g ai/ha)
35: Plant response rating, Surinam Grass ([12]; 4 g ai/ha, Postemergence)
95: Plant response rating, Dallisgrass ([3]; 31 g ai/ha, Preemergence) | Plant response rating, Crabgrass, Large ([6]; 16 g ai/ha, Preemergence) | Plant response rating, Foxtail, Green ([7]; Postemergence, 16 g ai/ha) | Plant response rating, Sandbur, S. ([9]; 31 g ai/ha, Preemergence) | Plant response rating, Johnsongrass ([11]; 16 g ai/ha, Preemergence) | Plant response rating, Surinam Grass ([12]; Postemergence, 16 g ai/ha)
90: Plant response rating, Dallisgrass ([3]; 16 g ai/ha, Preemergence) | Plant response rating, Foxtail, Green ([7]; Postemergence, 8 g ai/ha) | Plant response rating, Sandbur, S. ([9]; 4 g ai/ha, Postemergence) | Plant response rating, Johnsongrass ([11]; 4 g ai/ha, Postemergence) | Plant response rating, Johnsongrass ([11]; Postemergence, 8 g ai/ha)
20: Plant response rating, Dallisgrass ([3]; Preemergence, 4 g ai/ha) | Plant response rating, Foxtail, Green ([7]; 4 g ai/ha, Postemergence)
65: Plant response rating, Signalgrass ([2]; 4 g ai/ha, Postemergence) | Plant response rating, Quackgrass ([5]; 16 g ai/ha, Preemergence) | Plant response rating, Foxtail, Green ([7]; 16 g ai/ha, Preemergence)
40: Plant response rating, Signalgrass ([2]; Preemergence, 4 g ai/ha) | Plant response rating, Dallisgrass ([3]; 8 g ai/ha, Preemergence) | Plant response rating, Crabgrass, Large ([6]; Postemergence, 8 g ai/ha) | Plant response rating, Foxtail, Green ([7]; 8 g ai/ha, Preemergence)
